According to patent US5409898A, “Compositions and methods for treating infections caused by organisms sensitive to β-lactam antibiotics” (priority 1994, dated 1995):
Read-outs that look alike come from different tables or passages of the source. Non-standard residues stand in square brackets, D forms with d. Residues, ends and D or L forms follow the SMILES beside them. No end group written: not given here. Orn = NCCC[C@H](N)C(=O)O

Key:
human red blood cells = assay: Hemolysis assay; format: cell-based
E. coli H16 [1] = assay: In vivo protection of neutropenic mice from systemic E. coli H16 infection (C-13 peptide analogs)
Text: The ability of C-13 peptide analogs and cefepime combinations to protect mice from a lethal infection of E. coil was examined. Mice were made neutropenic by an injection of cyclophosphamide and then challenged with E. coli. Mice were then divided into four groups: (1) mice that were given PBS; (2) were given C-13 peptide analogs only; (3) were given cefepime only; and (4) were given a combination of C-13 peptide analogs and cefepime.
Male CrL:CF1 mice were made neutropenic five days prior to bacterial challenge. Neutropenia was induced by subcutaneous injection of 250 mg/kg Cytoxan (cyclophosphamide). The mice were challenged with either 2×10^4 E. coli H16 (Table 4) or 5×10^4 A645AP by intraperitoneal injection. Mice were divided into four treatment groups: (1) PBS; (2) C-13 peptide analog (15 mg/kg); (3) cefepime (0.1 mg/kg); (4) a combination treatment of cefepime and C-13 peptide analog (0.1 mg/kg cefepime and 15 mg/kg C-13 peptide analog) that were combined prior to injection. All injections were made in PBS (0.2 ml) and were administered intramuscularly with each injection in separate legs, one and 3.5 hours after bacterial challenge. The survival of the mice was monitored for ten days and the results analyzed by the Fisher Exact test.

[2] = test system: E. COLI A645 (ATCC 25922); assay: In vitro bactericidal activity (ID50) of cationic oligopeptides, serum bactericidal assay; format: cell-based, Escherichia coli
Protocol: Cells were diluted without washing to 5×10^4 cells/ml gelatin-veronel buffer (GBV++) and 0.05 ml was added to serum (see section 7.1.3.) in a 1.5 ml Eppendorf vial. For those bacterial cells pregrown in cefepime, the same amount of cefepime that was present during growth was added for both the preparation and examination of bactericidal activity. […] Peptides were diluted in deionized water to make a stock solution of 2 mg/ml and added to the reaction vial to give the appropriate concentration. The total reaction volume was 0.25 ml.

[3] = test system: endothelial cell proliferation; details: Maione et al., 1990; cited from earlier work
E. coli ATCC 25922 = assay: Serum bactericidal assay in 40% pooled normal human serum (magainin 2 with antibiotics); format: cell-based, Escherichia coli; details: for synergy of antibiotic with magainin 2: 1/32, 1/16, 1/8 MIC antibiotic, 200 μg/ml magainin 2, 40% pooled normal human serum
E. coli H16 [4] = assay: In vivo protection of neutropenic mice from lethal E. coli H16 infection (magainin 2, C-13 peptide, cefepime, amikacin); details: magainin 2 two injections 1 mg/mouse; amikacin two injections of 3 mg/kg
Protocol: The ability of magainin and cefepime combinations to protect mice from a lethal infection of E. coli was examined. Mice were made neutropenic by injection of Cytoxan and then challenged with E. coli. Mice were then divided into four different groups: (1) mice that were given no further treatment; (2) were given magainin 2 or C-13 peptide only; (3) were given cefepime only and (4) were given a combination of magainin 2 or C-13 peptide and cefepime. […] When amikacin, an aminoglycoside, was tested in similar experiments, no in vitro bactericidal activity or in vivo protection was found.
Mice were made neutropenic five days prior to bacterial challenge. Neutropenia was induced by subcutaneous injection of 250 mg/kg Cytoxan (cyclophosphamide). The mice were challenged with 2×10^4 E. coli H16. Challenge was by intraperitoneal injection. […] The survival of the mice was monitored for a period of at least 10 days

[5] = neutropenic mice, 2×10^4 E. coli H16 i.p., peptide 15 mg/kg, cefepime 0.1 mg/kg i.m. at one and 3.5 hours, ten days

## ALYRRLLRRLLRSARRLG [analog HH, Ala--Leu--Tyr--Arg--Arg--Leu--Leu--Arg--Arg--Leu--Leu--Arg--Ser--Ala--Arg--Arg--Leu--Gly]
Human red blood cells
  RBC LYSIS (%) (100 μG/ML): 3%

## ALYKKLLKKLLKSAKKLG [analog G, Ala--Leu--Tyr--Lys--Lys--Leu--Leu--Lys--Lys--Leu--Leu--Lys--Ser--Ala--Lys--Lys--Leu--Gly]
Human red blood cells
  RBC LYSIS (%) (100 μG/ML): < 1%
  change in the amount of RBC lysis: no increase

## Cecropin
E. coli H16 [1]; Fisher Exact test
  protection from systemic E. coli H16 infection: no significant increase in protection
E. coli H16 [1]; [5]
  % Survival: 20%
  Number--Survived/Total: 2/20
[2]; 1/4 MIC cefepime, NHS
  ID50 1/4 MIC CEFEPIME NHS: .25 µg/mL
[2]; 1/4 MIC cefepime, heat inactivated NHS
  ID50 1/4 MIC CEFEPIME HI-NHS: .5 µg/mL
[2]; no cefepime, NHS
  ID50 NO CEFEPIME NHS: 1 µg/mL
[2]; no cefepime, heat inactivated NHS
  ID50 NO CEFEPIME HI-NHS: 1 µg/mL
Human red blood cells; 100 μG/ML peptide, 37° C. for 45 minutes
  RBC LYSIS (%) (100 μG/ML): < 1%

## C-11: human platelet factor-4 peptide, amino acids 58-68 (PLYKKIIKKLL; UniProt P02776 89-99, looked up, fragment)
[3]
  inhibitory action compared with C-13: less inhibitory

## NCC[C@H](O)C(=O)N[C@@H]1C[C@H](N)[C@@H](O[C@H]2O[C@H](CN)[C@@H](O)[C@H](O)[C@H]2O)[C@H](O)[C@H]1O[C@H]1O[C@H](CO)[C@@H](O)[C@H](N)[C@H]1O [amikacin]
E. coli ATCC 25922
  synergy of antibiotic with magainin 2: neither Amikacin, an aminoglycoside and ciproflaxacin, a quinoline were synergistic
E. coli H16 [4]
  mice survived (out of total), amikacin experiment: three out of 10

## AKKLAKLYKKLLKKLLKSAKKLG [analog J, Ala--Lys--Lys--Leu--Ala--Lys--Leu--Tyr--Lys--Lys--Leu--Leu--Lys--Lys--Leu--Leu--Lys--Ser--Ala--Lys--Lys--Leu--Gly]
Human red blood cells
  RBC LYSIS (%) (100 μG/ML): 2.5%
  change in the amount of RBC lysis: increased the amount of RBC lysis

## CC(C)C[C@@H](NC(=O)[C@@H](C)N)C(=O)N[C@H](Cc1ccc(O)cc1)C(=O)N[C@H](CCCCN)C(=O)N[C@H](CCCCN)C(=O)N[C@H](CC(C)C)C(=O)N[C@H](CC(C)C)C(=O)N[C@H](CCCCN)C(=O)N[C@H](CCCCN)C(=O)N[C@H](CC(C)C)C(=O)N[C@H](CC(C)C)C(=O)N[C@H](CCCCN)C(=O)N[C@H](CO)C(=O)N[C@H](C)C(=O)N[C@H](CCCCN)C(=O)N[C@H](CCCCN)C(=O)N[C@H](CC(C)C)C(=O)NCC(=O)O [analog X, dAla--dLeu--dTyr--dLys--dLys--dLeu--dLeu--dLys--dLys--dLeu--dLeu--dLys--dSer--dAla--dLys--dLys--dLeu--Gly] (H-[dA][dL][dY][dK][dK][dL][dL][dK][dK][dL][dL][dK][dS][dA][dK][dK][dL]G-OH)
Human red blood cells
  RBC LYSIS (%) (100 μG/ML): < 1%

## ALYKKIIKKLLESAKKLG [analog H, Ala--Leu--Tyr--Lys--Lys--Ile--Ile--Lys--Lys--Leu--Leu--Glu--Ser--Ala--Lys--Lys--Leu--Gly]
Human red blood cells
  RBC LYSIS (%) (100 μG/ML): 1.5%

## ALYKKLLKKLLKFAKKFG [analog P, Ala--Leu--Tyr--Lys--Lys--Leu--Leu--Lys--Lys--Leu--Leu--Lys--Phe--Ala--Lys--Lys--Phe--Gly]
Human red blood cells
  RBC LYSIS (%) (100 μG/ML): 21%

## C-10: human platelet factor-4 peptide, amino acids 58-67 (PLYKKIIKKL; UniProt P02776 89-98, looked up, fragment)
[3]
  inhibitory action compared with C-13: Little inhibitory action

## C-12: human platelet factor-4 peptide, amino acids 58-69 (PLYKKIIKKLLE; UniProt P02776 89-100, looked up, fragment)
[3]
  inhibitory action compared with C-13: less inhibitory

## CC(C)(O/N=C(\C(=O)N[C@@H]1C(=O)N2C(C(=O)[O-])=C(C[n+]3ccccc3)CS[C@H]12)c1csc(N)n1)C(=O)O [ceftazidime]
E. coli ATCC 25922
  synergy of antibiotic with magainin 2: synergistic

## PLYKKIIKKLLES [C-13, Pro--Leu--Tyr--Lys--Lys--Ile--Ile--Lys--Lys--Leu--Leu--Glu--Ser]
Human red blood cells
  RBC LYSIS (%) (100 μG/ML): < 1%

## MGN 1: magainin 1, 23 amino acid cationic oligopeptide from skin secretions of Xenopus laevis (GIGKFLHSAGKFGKAFVGEIMKS; Magainin-1; UniProt P11006 37-59, looked up)
E. coli ATCC 25922; untreated bacteria, 40% PNHS
  MGN killing of untreated bacteria: blocked the action

## KWKLYKKLLKKLLKSAKKLG [analog N, Lys--Trp--Lys--Leu--Tyr--Lys--Lys--Leu--Leu--Lys--Lys--Leu--Leu--Lys--Ser--Ala--Lys--Lys--Leu--Gly]
Human red blood cells
  RBC LYSIS (%) (100 μG/ML): 7.5%

## C[C@H]1[C@H](NC(=O)/C(=N\OC(C)(C)C(=O)O)c2csc(N)n2)C(=O)N1S(=O)(=O)O [aztreonam]
E. coli ATCC 25922
  synergy of antibiotic with magainin 2: synergistic
E. coli H16 [1]; similar experiments with aztreonam
  mice survived (out of total), aztreonam experiment: one out of 20

## ALYKKLLKKLLKKAKKLG [analog KK, Ala--Leu--Tyr--Lys--Lys--Leu--Leu--Lys--Lys--Leu--Leu--Lys--Lys--Ala--Lys--Lys--Leu--Gly]
Human red blood cells
  RBC LYSIS (%) (100 μG/ML): < 1%

## CC(C)C[C@H](NC(=O)[C@H](C)N)C(=O)N[C@@H](Cc1ccc(O)cc1)C(=O)N[C@@H](CCCN)C(=O)N[C@@H](CCCN)C(=O)N[C@@H](CC(C)C)C(=O)N[C@@H](CC(C)C)C(=O)N[C@@H](CCCN)C(=O)N[C@@H](CCCN)C(=O)N[C@@H](CC(C)C)C(=O)N[C@@H](CC(C)C)C(=O)N[C@@H](CCCN)C(=O)N[C@@H](CO)C(=O)N[C@@H](C)C(=O)N[C@@H](CCCN)C(=O)N[C@@H](CCCN)C(=O)N[C@@H](CC(C)C)C(=O)NCC(=O)O [analog II, Ala--Leu--Tyr--Orn--Orn--Leu--Leu--Orn--Orn--Leu--Leu--Orn--Ser--Ala--Orn--Orn--Leu--Gly] (H-ALY[Orn][Orn]LL[Orn][Orn]LL[Orn]SA[Orn][Orn]LG-OH)
Human red blood cells
  RBC LYSIS (%) (100 μG/ML): < 1%

## ALYKKLLKKLLESAKKLG [analog F, Ala--Leu--Tyr--Lys--Lys--Leu--Leu--Lys--Lys--Leu--Leu--Glu--Ser--Ala--Lys--Lys--Leu--Gly]
Human red blood cells
  RBC LYSIS (%) (100 μG/ML): < 1%

## O=C(O)c1cn(C2CC2)c2cc(N3CCNCC3)c(F)cc2c1=O [ciprofloxacin]
E. coli ATCC 25922
  synergy of antibiotic with magainin 2: neither Amikacin, an aminoglycoside and ciproflaxacin, a quinoline were synergistic

## C[C@@H](O)[C@H]1C(=O)N2C(C(=O)O)=C(SCCN=CN)C[C@H]12 [imipenem]
E. coli ATCC 25922
  synergy of antibiotic with magainin 2: synergistic
